The structures appear in SMILES notation.

Sequence of Kappa-type opioid receptor (P41144 whole entry): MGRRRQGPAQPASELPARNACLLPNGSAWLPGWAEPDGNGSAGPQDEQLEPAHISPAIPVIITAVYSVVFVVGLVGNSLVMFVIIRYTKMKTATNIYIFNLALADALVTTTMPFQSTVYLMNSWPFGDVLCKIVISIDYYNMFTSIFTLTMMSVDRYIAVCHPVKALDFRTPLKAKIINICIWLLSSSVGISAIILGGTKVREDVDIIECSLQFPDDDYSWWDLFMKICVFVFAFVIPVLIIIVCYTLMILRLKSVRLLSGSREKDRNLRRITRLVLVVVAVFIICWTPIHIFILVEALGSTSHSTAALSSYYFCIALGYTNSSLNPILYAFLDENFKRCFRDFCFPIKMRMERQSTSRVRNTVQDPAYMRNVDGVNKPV

One assay addresses Kappa-type opioid receptor (Cavia porcellus, UniProt P41144). As to the kind of experiment: Displacement of [3H]U69593 from kappa opioid receptor in guinea pig brain homogenate. It is filed as tissue-based.
For the compound `CC(C)C[C@@H]1CN2C(=NC[C@@H]2C2CCCCC2)N1CCC12CC3CC(CC(C3)C1)C2`, the IC50 came out at 1.21 µM.

With `C1CCC([C@H]2CN3C(=NC[C@@H]3C3CCCCC3)N2CCC23CC4CC(CC(C4)C2)C3)CC1`, the half-inhibitory concentration (IC50) amounted to 1.49 µM.

As to `COc1ccc(C[C@H]2CN3C(=NC[C@@H]3C)N2CCC23CC4CC(CC(C4)C2)C3)cc1`, the half-inhibitory concentration (IC50) came to 1.53 µM.

Consider `CC(C)C[C@@H]1CN2C(=NC[C@H]2C2CCCCC2)N1CCC12CC3CC(CC(C3)C1)C2`, for which the IC50 was found to be 1.75 µM.

On to `C[C@H]1CN=C2N(CCC34CC5CC(CC(C5)C3)C4)[C@@H](C3CCCCC3)CN21`, for which the IC50 worked out at 1.94 µM.

In the case of `CC(C)C[C@@H]1CN2C(=NC[C@@H]2C)N1CCC12CC3CC(CC(C3)C1)C2`, the IC50 was found to be 3.64 µM.

In the case of `C1CCC([C@H]2CN3C(=NC[C@H]3C3CCCCC3)N2CCC23CC4CC(CC(C4)C2)C3)CC1`, the concentration for half-maximal inhibition (IC50) is > 10 µM.

As for `CCOc1ccc(C[C@@H]2CN3C(=NC[C@@H]3C)N2CCC23CC4CC(CC(C4)C2)C3)cc1`, the IC50 worked out at 0.151 µM.

`CCOc1ccc(C[C@@H]2CN3C(=NC[C@@H]3C)N2CCC2CC3CCC2C3)cc1` (stereo not given in full) showed an IC50 of 0.185 µM.

Turning to `CCOc1ccc(C[C@@H]2CN3C(=NC[C@@H]3CC)N2CCC2CC3CCC2C3)cc1` (stereo not given in full), the IC50 was determined as 0.321 µM.

`CCCC[C@@H]1CN=C2N(CCC3CC4CCC3C4)[C@H](Cc3ccc(OC)cc3)CN21` (stereo not given in full): the concentration for half-maximal inhibition (IC50) was determined as 0.43 µM.

`COc1ccc(C[C@@H]2CN3C(=NC[C@H]3CC3CCCCC3)N2CCC23CC4CC(CC(C4)C2)C3)cc1` showed a half-maximal inhibitory concentration (IC50) of 0.457 µM.

Turning to `CCC[C@H]1CN=C2N(CC3CCC3)[C@@H](Cc3ccc(OC)cc3)CN21`, the IC50 is > 10 µM.

Turning to `COc1ccc(C[C@H]2CN3C(=NC[C@H]3CC3CCCCC3)N2CC2CCCC2)cc1`, the concentration for half-maximal inhibition (IC50) is > 10 µM.

As for `COc1ccc(C[C@H]2CN3C(=NC[C@@H]3C(C)C)N2CC2CCCC2)cc1`, the half-inhibitory concentration (IC50) was > 10 µM.

As for `CC(C)C[C@H]1CN2C(=NC[C@@H]2C)N1CCCC1CCCCC1`, the IC50 is > 10 µM.

Take `CC(C)[C@H]1CN2C(=NC[C@@H]2C)N1CCCCC1CCCCC1`: the half-inhibitory concentration (IC50) was > 10 µM.

Consider `C[C@H]1CN2C(=NC[C@@H]2C)N1CCC12CC3CC(CC(C3)C1)C2`, for which the concentration for half-maximal inhibition (IC50) was > 10 µM.

Regarding `CCC[C@H]1CN=C2N(CC3CCC3)[C@H](Cc3ccc(OC)cc3)CN21`, the half-inhibitory concentration (IC50) is > 10 µM.

`COc1ccc(C[C@H]2CN3C(=NC[C@@H]3C3CCCCC3)N2CCC23CC4CC(CC(C4)C2)C3)cc1`: the concentration for half-maximal inhibition (IC50) stood at 4.92 µM.

Regarding `COc1ccc(C[C@@H]2CN3C(=NC[C@@H]3C3CCCCC3)N2CCC23CC4CC(CC(C4)C2)C3)cc1`, the concentration for half-maximal inhibition (IC50) was > 10 µM.

Regarding `COc1ccc(C[C@@H]2CN3C(=NC[C@H]3C3CCCCC3)N2CCC23CC4CC(CC(C4)C2)C3)cc1`, the half-maximal inhibitory concentration (IC50) is > 10 µM.

`C1CCC([C@H]2CN3C(=NC[C@H]3C3CCCCC3)N2CCC2CC3CCC2C3)CC1` (stereo not given in full): the IC50 stood at 0.524 µM.

`CC(C)C[C@@H]1CN2C(=NC[C@@H]2C)N1CCC1CC2CCC1C2` (stereo not given in full) yielded a concentration for half-maximal inhibition (IC50) of 2.31 µM.

The compound `CC(C)C[C@@H]1CN2C(=NC[C@@H]2C)N1CCCC1CCCCC1` gave a half-maximal inhibitory concentration (IC50) of 5.44 µM.

Take `CC(C)C[C@@H]1CN2C(=NC[C@H]2C2CCCCC2)N1CC1CCC(C)CC1` (stereo not given in full): the IC50 is 0.738 µM.

`CC(C)C[C@@H]1CN2C(=NC[C@@H]2C2CCCCC2)N1CC1CCC(C)CC1` (stereo not given in full) showed a 50% inhibitory concentration (IC50) of 0.999 µM.

In turn, `CC1CCC(CN2C3=NC[C@H](C)N3C[C@@H]2C2CCCCC2)CC1` (stereo not given in full) returned an IC50 of 5.06 µM.

In the case of `CC(C)C[C@@H]1CN2C(=NC[C@H]2C2CCCCC2)N1CCCC1CCCCC1`, the concentration for half-maximal inhibition (IC50) was 1.77 µM.

`C1CCC([C@H]2CN3C(=NC[C@@H]3C3CCCCC3)N2CCC2CC3CCC2C3)CC1` (stereo not given in full) showed a half-inhibitory concentration (IC50) of 0.56 µM.

In the case of `CC(C)C[C@@H]1CN2C(=NC[C@@H]2C2CCCCC2)N1CCCC1CCCCC1`, the IC50 is 3.74 µM.

In the next assay the target is Mu-type opioid receptor (Homo sapiens, UniProt P35372). As to the kind of experiment: Binding affinity at mu opioid receptor.
Sequence of Mu-type opioid receptor (P35372 whole entry): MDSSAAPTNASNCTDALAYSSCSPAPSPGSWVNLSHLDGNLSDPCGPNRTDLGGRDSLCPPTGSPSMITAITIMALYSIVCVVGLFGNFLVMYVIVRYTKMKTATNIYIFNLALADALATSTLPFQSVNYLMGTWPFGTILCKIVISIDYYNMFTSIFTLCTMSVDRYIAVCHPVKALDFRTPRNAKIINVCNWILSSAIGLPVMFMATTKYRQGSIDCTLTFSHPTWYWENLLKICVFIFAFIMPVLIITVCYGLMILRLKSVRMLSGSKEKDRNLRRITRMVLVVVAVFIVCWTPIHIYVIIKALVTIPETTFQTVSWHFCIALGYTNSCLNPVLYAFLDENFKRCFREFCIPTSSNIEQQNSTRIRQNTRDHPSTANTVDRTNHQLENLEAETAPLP
In turn, `COc1ccc(C[C@@H]2CN3C(=NC[C@@H]3C)N2CCC2CC3CCC2C3)cc1` (stereo not given in full) had a half-inhibitory concentration (IC50) of 20.3 µM.

Take `COc1ccc(C[C@H]2CN3C(=NC[C@@H]3C)N2CCCC2CCCCC2)cc1`: the IC50 was 0.421 µM.

The target of the next assay is Delta-type opioid receptor (Homo sapiens, UniProt P41143). As to the kind of experiment: Binding affinity at delta opioid receptor.
Sequence of Delta-type opioid receptor (P41143 whole entry): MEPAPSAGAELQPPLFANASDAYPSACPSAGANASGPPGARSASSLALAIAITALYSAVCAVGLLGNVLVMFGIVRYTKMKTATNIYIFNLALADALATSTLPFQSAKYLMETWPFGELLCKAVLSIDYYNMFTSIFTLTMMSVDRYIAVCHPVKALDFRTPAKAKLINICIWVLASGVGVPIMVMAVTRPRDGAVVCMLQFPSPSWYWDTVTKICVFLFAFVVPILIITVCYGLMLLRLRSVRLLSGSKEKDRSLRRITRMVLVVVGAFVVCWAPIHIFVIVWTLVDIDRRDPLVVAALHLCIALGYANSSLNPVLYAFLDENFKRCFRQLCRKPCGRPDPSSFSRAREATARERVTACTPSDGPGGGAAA
`COc1ccc(C[C@@H]2CN3C(=NC[C@@H]3C)N2CCC2CC3CCC2C3)cc1` (stereo not given in full) returned an IC50 of 2.07 µM.

In turn, `COc1ccc(C[C@H]2CN3C(=NC[C@@H]3C)N2CCCC2CCCCC2)cc1` showed a 50% inhibitory concentration (IC50) of 5.46 µM.

(Values after ChEMBL document CHEMBL1150369, “Conformation-opioid activity relationships of bicyclic guanidines from 3D similarity analysis” (Bioorg Med Chem, 2008).)
